Data from a melting point compilation (Tetko et al.; mined from patent text by program, amines drawn as free bases though some values may be those of a salt).

Compound | melting point [°C]
C#Cc1cccc(C(=O)OCC)c1 | 36 to 38
CC1(C)Oc2ccc(C#N)cc2C(C(=O)Nc2ccccc2)=C1O | 167 to 170
CNC(=S)n1ncnc1N | 184 to 185
CC(=O)NC[C@H]1CN(c2ccc3c(c2)CCOC3)C(=O)O1 | 142 to 145
O=S1NC(CC2=C(Cl)c3ccccc3CC2)=NO1 (stereo not given) | 90.5 to 91.5
CCOC(=O)c1c2n(c3cc(N4CCN(CC(C)=O)CC4)c(F)cc3c1=O)C(C)S2 (stereo not given) | 196 to 200
N#Cc1ccccc1Nc1cc2c(cc1Nc1ccccc1C#N)C(=O)NC2=O | 279 to 280
C[C@@H](COC(F)(F)C(F)F)[C@](O)(Cn1cncn1)c1ccc(F)cc1F | 148
O=C(C=C1CCCCC1)C1Cc2c([nH]c3ccccc23)C(c2ccc3c(c2)OCO3)N1 (stereo not given) | 116 to 118
Cc1csc2c1-n1cccc1/C2=N/OCCBr | 92
COc1ccc(Nc2c(N)cc(C(=O)O)cc2S(N)(=O)=O)cc1 | 214
CCNC(=C[N+](=O)[O-])NCCSCc1[nH]cnc1C | 171 to 172
Cc1cc(SCc2ccnc3c2nc(-c2ccc(C(F)(F)F)cc2)n3C)ccc1CCC(=O)O | 89 to 91
Cn1c([N+](=O)[O-])cnc1COc1ccc([N+](=O)[O-])cc1 | 150
O=S1(=O)NC2CCCN2c2c(F)cc(O)cc21 (stereo not given) | 167 to 169
COc1nc2ccccc2nc1NC(=O)N1CCN(c2ccccc2C(C)C)CC1 | 147 to 149
O=c1[nH]c2cc(Cl)cc(Cl)c2c(=O)n1Cc1cccc(F)c1 | 267 to 270
COc1cccc(CNC(=O)c2nc3ccc(F)c(OCCc4ccc(-n5cn[nH]c5=O)cc4)c3c(=O)[nH]2)c1 | 196 to 198
Cn1c(-c2nnc(Cc3ccc(F)cc3)o2)c(O)c(=O)c2ccccc21 | 222
CS(=O)(=O)c1ccc(-c2cnn(-c3ccc(F)c(F)c3)c(=O)c2Cc2ccc(F)c(F)c2)cc1 | 177 to 179
CC(CCCC(C)(C)O)C1CCC2C3CCC4(O)CC(O)CCC4(C)C3CCC12C (stereo not given) | 202 to 204
CCCNc1ncnc2c1ncn2Cc1ccc(OC)c(OC)c1 | 117 to 120
COC(=O)C(CC(C)([N+](=O)[O-])[N+](=O)[O-])C(=O)OC | 44
CCOC1CC2(C)C(CCC3C4CC(C)C(C(C)=O)C4(C)CC(=O)C32)CC1O (stereo not given) | 178 to 179
O=C(O)c1ccc(-c2c([N+](=O)[O-])oc3c2ccc2ccccc23)cc1 | > 300
CC(=O)NCC1CC(c2cc(F)c(N3CCN(C(=O)C4COc5ccccc5O4)CC3)c(F)c2)=NO1 (single isomer, unassigned; (-)) | 158 to 159
CC1CC2=CC(=O)CCC2C2CCC3(C)C(C=O)CCC3C12 (stereo not given) | 207 to 230
CC(C)c1nc(-c2cccs2)cc(-c2ccc(F)cc2)c1C=C(Br)Br | 107 to 108

Compound | melting point [°C]
CCC(C)(C)N=NC(C)(C#N)CCC(=O)O (stereo not given) | 60 to 62
O=C(O)c1cn(C2CC2)c2c(F)c(N3CCNCC3)c(F)cc2c1=O | > 270
CC(=O)Oc1nc(-c2ccc(C)cc2)sc1-c1ccccc1 | 122 to 125
CCCc1nc2c(N)nc3ccccc3c2n1CC(C)(C)CC1(C)OCCO1 | 186 to 188
CCCCN(C(C)=O)c1cccc(-c2ccnc3c(C#N)cnn23)c1 | 146 to 148
O=CC=NNc1c(Cl)cc(C(F)(F)F)cc1Cl | 131 to 133
CN(C)C(=O)ON=C1SC(=C(C#N)C#N)SC1(C)C | 175 to 177
Cc1c(C2(c3ccccc3)CCC(c3ccccc3)(N(C)C)CC2)[nH]c2ccccc12 (stereo not given) | 193 to 207
CN(C)C1CC2=CNC=C3C=C(C#N)OCC1=C32 (stereo not given) | 205 to 207
CCOC(=O)Nc1nc(C)c(-c2nc3ccccc3c(=O)n2-c2ccccc2Cl)s1 | 246 to 247
CCOC(=O)Cc1nn(C/C=C/c2cccc(C(F)(F)F)c2F)c(=O)c2ccccc12 | 104 to 106
COC(=O)c1ccc2c(c1)C(SCCO)c1ccccc1CC2 (stereo not given) | 107 to 109
COc1ccc(N2C(=O)c3ccc(Cl)cc3C2CC(=O)N2CCC3(CC2)OCCO3)cc1 (stereo not given) | 156 to 157
COC(=O)c1ccccc1S(=O)(=O)NC(=O)Nc1nc(C)c2ccccc2n1 | 182 to 183
COP(=S)(OC)Oc1cc(-c2ccccc2)sc1C#N | 95
Cc1ccc(S(=O)(=O)C[N+](=O)[O-])s1 | 73 to 74
Fc1ccccc1C1=NCc2ccccc2-c2ccc(Br)cc21 | 104 to 105
O=c1c2c(Cc3ccccc3)n[nH]c2c2cccnc2n1-c1cccc(OC(F)(F)F)c1 | 249 to 251
C/C(=C\CC1OC(=O)NC1=O)c1cccc(OCc2nc(-c3ccc(OCC(F)(F)F)cc3)oc2C)c1 (stereo not given) | 120 to 121
COc1ccc(S(N)(=O)=O)cc1C(=O)NCc1ccc(OCCN(C)C)cc1 | 122 to 123
CO[C@]12C[C@@H](CN3CCC(O)(c4ccc(Cl)c(C(F)(F)F)c4)CC3)CN(C)[C@@H]1Cc1c[nH]c3cccc2c13 | 143 to 146
Cc1ncccc1NC(=NC#N)NC(NC(=O)Cc1ccc(F)cc1)C(C)(C)C (stereo not given) | 166 to 167
CCOC(=O)C1=C(C(F)(F)F)Nc2n[nH]cc2C1c1cccs1 (stereo not given) | 157 to 161
Fc1ccc(C23CNCC(CO2)O3)cc1 (stereo not given) | 89
CCN1CCC(O)(c2cc(F)cc(F)c2)C1 (single isomer, unassigned; (-)) | 111 to 112
CC(=O)c1ccc(S(=O)(=O)Nc2ccc(Cl)cn2)cc1 | 181 to 182
C#CCOC(=O)c1ccc(O)c(Cl)c1 | 144 to 145

Next, values leading:

melting point [°C] | Compound
219 | Cc1cc(-c2c(-c3ccc(OCC(F)(F)F)c(C(F)(F)F)c3)nc3cncn3c2C(F)(F)F)ccn1
101 to 102 | OC1CCc2ccc(Oc3c(F)cc(C(F)(F)F)cc3Cl)cc21 (racemic)
129 to 132 | Cc1cc(-c2cc(C(=O)O)c(=O)n(CC(C)C)n2)ccc1F
75 to 77 | CC(=O)c1c(C)oc(C)c1C(C)=O
91 to 92 | CC1(C)C=Cc2c(c3ccccc3n(Cc3ccccc3)c2=O)O1
201 to 203 | Cc1cc(-c2nc3cc(F)cc(F)c3s2)ccc1N
106 to 108 | N#CC(Cc1c(Cl)cccc1Cl)C(=O)O (stereo not given)
115 to 117 | Nc1ccc(S(=O)(=O)CCO)cc1O
110 | OCC1Cc2sccc2CN1 (racemic)
128 to 130 | CCOc1ccc2c(c1)CC(=O)c1cc(C(C)C(N)=O)ccc1S2 (stereo not given)
216 to 218 | CCS(=O)(=O)Nc1cc2occc(=O)c2cc1Oc1ccccc1
147 to 150 | CC(C)c1c[nH]c(S)n1
103 to 105 | FC(F)(F)Oc1ccc(C=Cc2nc(CNc3ccc(CCCCn4ccnn4)cc3)co2)cc1
43 to 45 | CCCCCCCCNC(=O)n1nc(Oc2c(Cl)cc(C(F)(F)F)cc2Cl)cc1C
49 to 51 | C=CCN(CC=C)S(=O)(=O)c1ncn(C(=O)N(CC)CC)n1
148 | Cc1cccc(C)c1NC(C)(C)C(=O)O
244 to 246 | Cc1cc(=S)c2c(O)cc(O)cc2o1
100 to 102 | CC(C)C1CC(=O)C(C(=O)NS(=O)(=O)c2ccc(Cl)cc2)C(=O)C1 (stereo not given)
134 to 135 | CCCc1nn(-c2ccc(C(F)(F)F)cn2)cc1CCCOc1c(C)cccc1CC(=O)O
144 to 147 | CC(Br)C(=O)c1ccccc1NCC(=O)O (stereo not given)
164 to 166 | CC(C)(C)c1ccc(C#N)c(NC(=O)Nc2cccnc2)c1
213 to 217 | O=C(CCC(=O)Oc1cc(O)cc(O)c1)Oc1cc(O)cc(O)c1
34 to 36 | CCCCNc1c(N)c(NCC(C)C)nc(C)c1C(=O)OCC

melting point [°C] | Compound
210 to 212 | COc1ccc2c(c1)c(-c1cc3c(C(=O)NC(C)(C)CO)ccnc3[nH]1)cn2C
92 to 93 | CCc1c(Oc2ccc(C(F)(F)F)cc2[N+](=O)[O-])n[nH]c1C
154 to 156 | Cc1cccc(OCc2cccc(OCc3ccc4ccccc4n3)c2)c1C(=O)O
280 | COc1ccc(-c2nc(S)[nH]c2-c2ccncc2)cc1
70 to 72 | CCOC(=O)c1cnn(-c2ccc(Cl)cc2C(F)(F)F)c1C#N
154 | Oc1ccc(C(O)CN2CCN(C(c3ccccc3)c3ccccc3)CC2)cc1 (stereo not given)
199 to 203 | CCCC1Cc2cc(OCC(=O)O)c(Cl)c(Cl)c2C1=O (stereo not given)
126 to 128 | C[Si](C)(C)CCOCn1c(-c2cnn(-c3c(Cl)cc(C(F)(F)F)cc3Cl)n2)nc([N+](=O)[O-])c1Br
117 to 119 | Cc1ccc(C(C=O)=CN(C)C)c([N+](=O)[O-])c1
111 to 112 | NS(=O)(=O)N1CCC(F)(F)CC1
173 to 174 | COc1ccc(N2CN(CC(=O)O)C(=O)C23CCN(C(=O)OC(C)(C)C)CC3)cc1
113 to 116 | CCC=C(c1ccccc1N1CCCC(C)(C)C1)C(C(N)=O)c1ccc(C(=O)OCC)cc1 (stereo not given)
83 to 86 | OCC(CO)(OCc1ccccc1)c1ccccc1
134 to 136 | Cc1ccc([C@H](CC(=O)O)NC(=O)Nc2c(O)c3ccccc3n(Cc3ccccc3Cl)c2=O)cc1
81 to 83 | C[C@@H]1CN(Cc2ccccc2)C[C@H]1C(=O)NC1CC1 (relative stereo)
149 to 155 | CCCCCCCCCCCCCCCCCCOc1cc(C(=O)O)cc(N(CC(=O)O)CC(=O)O)c1
132 to 134 | COC(=O)Cc1c(C)n(Cc2ccc(Cl)cc2)c2ccc(OCc3ccc4ccccc4n3)cc12
205 to 207 | CC[C@@H](C(N)=O)n1nnc2cc(Br)ccc21
52 to 53.5 | COC(=O)c1sc(C(F)(F)F)cc1OCc1ccccc1
116 to 119 | CS(=O)(=O)c1ccc(-c2cnn(Cc3ccc4cc(F)ccc4n3)c(=O)c2-c2ccc(F)cc2)cc1
95 to 105 | CCC(C)(C)OC(=O)NC(C)(Cc1c[nH]c2ccccc12)C(=O)NCCc1cccnc1 (stereo not given)
90 to 92 | C=CNC(=S)n1nc(Oc2ncc(C(F)(F)F)cc2Cl)cc1C
